These results are taken from patent US4808703A, “Novel 3-(4'-aminobutylamino) propylaminobleomycin derivatives” (Zaidan Hojin Biseibutsu Kagaku Kenku Kai, priority 1983, dated 1989).

Read-outs that look alike come from different tables or passages of the source.

The test system of data set [1] is HeLa S3 cells. As to the kind of experiment: Growth-inhibiting effect on HeLa S3 cell cultured. Format: cell-based. The note with it: 3 days of incubation after addition.
Procedure: (2) Growth-inhibiting effect on HeLa S3 cell cultured
A culture medium (10% calf serum-containing MEM) in a plastic dish was inoculated with HeLa S3 cells, and a bleomycin compound was added 2 days later. Incubation was continued for a further 3 days, and then the number of viable cells was counted. Growth inhibitory rate was calculated from the following equation:
Growth inhibitory rate (%)=100×(B-A)/(B-C)
where A is the final bacterial cell count 3 days after addition of the test sample, B is the final bacterial cell count in the control involving no addition of the test sample, and C is the bacterial cell count at the time of addition of the test sample.
ID50, the concentration producing a growth inhibitory rate of 50%, was estimated from the curve of the concentration of the test sample Vs. the growth inhibitory rate.
Data set [2] has as its system Bacillus subtilis. As to the kind of experiment: Antibacterial activity by the agar cylinder plate method, Bacillus subtilis. Format: cell-based. The note with it: copper-containing compound, standard bleomycin A2 = 1,000 mcg potency/mg. An excerpt: (§1) (1) Antibacterial activity against Mycobacterium smegmatis ATCC607 and Bacillus subtilis
(§2) The above activity ws determined by the agar cylinder plate method using the above microorganisms.

In data set [3] the test system is Mycobacterium smegmatis ATCC 607. Description: Antibacterial activity by the agar cylinder plate method, Mycobacterium smegmatis ATCC607. Format: cell-based. As to conditions: copper-containing compound, standard bleomycin A2 = 1,000 mcg potency/mg.
Excerpt: as §1, §2

For data set [4], the system named is ICR mice. The note with it: mouse, in vivo.
Procedure: (§3) ICR mice (male, 15-week-old) were used in groups of 10 each. The dose of each test compound was 5 mg/kg injected intraperitoneally once daily for 10 consecutive days. After the administration of the compound was completed, the animals were reared for 5 weeks for observation. Then, the animals were killed and autopsied so that the incidence and grade of pulmonary fibrosis were examined.
(§4) The incidence of pulmonary fibrosis was expressed as the number of mice developing pulmonary fibrosis in the group of mice administered the test compound. The grade of pulmonary fibrosis was expressed as the total score for pulmonary fibrosis divided by the total number of specimens.
(§5) 1 point: Accumulation of exudate in the alveoli, and fibrosis-like changes seen in the alveolar septum.
(§6) 2 points: Fibrosis seen at several sites.
4 points: Sporadic fibrosis.
(§7) 6 points: Extensive fibrosis (fibrosis seen in more than 170 of the total region).
(§8) The ratio in the table represents the ratio of the incidence of the test compound to that of bleomycin complex, or the ratio of the grade of the test compound to that of bleomycin complex.
Data set [5] deals with ICR mice. Description: Pulmonary toxicity (fibrosis of the lung) in mice. The note with it: for Incidence: Number of mice with pulmonary fibrosis/Number of mice in the treatment group / Incidence (%) of pulmonary fibrosis / Grade: Total score for pulmonary fibrosis/Total specimens / Grade of pulmonary fibrosis (total score divided by total number of specimens): 5 mg/kg i.p. once daily for 10 days; for Incidence: Number of mice with pulmonary fibrosis/Number of mice in the treatment group / Incidence (%) of pulmonary fibrosis: autopsy after 5 weeks of observation; for Incidence: Number of mice with pulmonary fibrosis/Number of mice in the treatment group: count; for Incidence (%) of pulmonary fibrosis: percentage in parentheses; for Grade: Total score for pulmonary fibrosis/Total specimens / Grade of pulmonary fibrosis (total score divided by total number of specimens): autopsy after 5 weeks, scores 0, 1, 2, 4, 6 points; for Grade: Total score for pulmonary fibrosis/Total specimens: fraction; for Grade of pulmonary fibrosis (total score divided by total number of specimens): value in parentheses; for Grade ratio: grade of the test compound to that of bleomycin complex; for Incidence ratio: incidence of the test compound to that of bleomycin complex.
Procedure: as §3, §4, §5, §6
4 points: Sporadic fibrosis.
as §7, §8

Data set [6] relates to Mycobacterium smegmatis ATCC 607. The note with it: copper-free bleomycin A2; standard for both Mycobacterium smegmatis ATCC607 and Bacillus subtilis; cited from earlier work.

For “3-(4'-cycloundecanylmethylaminobutylamino)propylaminobleomycin [Compound 7]”, the “ID50 of copper-free compound (concentration producing a growth inhibitory rate of 50%)” value in data set [1] stood at 0.16 µg/mL. The “Antibacterial titer of copper-compound” value in data set [2] amounted to 7330 mcg potency/mg. The “Antibacterial titer of copper-compound” value in data set [3] was found to be 24240 mcg potency/mg. For the same compound, in data set [4], the Grade ratio is given as 0.00, the Incidence ratio was found to be 0.00 and the “Incidence: Number of mice with pulmonary fibrosis/Number of mice in the treatment group” value was 0/10.

With `CCCCCN(CCCCC)CCCCN(CCCCC)CCCNC(=O)c1csc(-c2csc(CCNC(=O)C(NC(=O)C(C)C(O)C(C)NC(=O)C(NC(=O)c3nc(C(CC(N)=O)NCC(N)C(N)=O)nc(N)c3C)C(OC3OC(CO)C(O)C(O)C3OC3OC(CO)C(O)C(OC(N)=O)C3O)c3cnc[nH]3)C(C)O)n2)n1` (stereo not drawn) [Compound 9, 3-{N--n-pentyl-N--[4'-bis(n-pentyl)aminobutyl]amino}propylaminobleomycin], the “Antibacterial titer of copper-compound” value in data set [2] came to 3520 mcg potency/mg. In data set [5], the “Incidence: Number of mice with pulmonary fibrosis/Number of mice in the treatment group” value is 0/10, the “Incidence (%) of pulmonary fibrosis” value amounted to 0%, the “Grade: Total score for pulmonary fibrosis/Total specimens” value is 0/30 and the “Grade of pulmonary fibrosis (total score divided by total number of specimens)” value was 0. Also, in data set [5], the Grade ratio was found to be 0.00 and the Incidence ratio was determined as 0.00. Moreover, the “Antibacterial titer of copper-compound” value in data set [3] came to 57408 mcg potency/mg.

As for `Cc1ccc(CN(CCCCN(Cc2ccc(C)cc2)Cc2ccc(C)cc2)CCCNC(=O)c2csc(-c3csc(CCNC(=O)C(NC(=O)C(C)C(O)C(C)NC(=O)C(NC(=O)c4nc(C(CC(N)=O)NCC(N)C(N)=O)nc(N)c4C)C(OC4OC(CO)C(O)C(O)C4OC4OC(CO)C(O)C(OC(N)=O)C4O)c4cnc[nH]4)C(C)O)n3)n2)cc1` (stereo not drawn) [Compound 5, 3-{N--p-methylbenzyl-N--[4'-bis(p-methylbenzyl)aminobutyl]amino}propylaminobleomycin], the “Antibacterial titer of copper-compound” value in data set [2] is given as 203 mcg potency/mg. Further, in data set [5], the “Incidence: Number of mice with pulmonary fibrosis/Number of mice in the treatment group” value is 0/10, the “Incidence (%) of pulmonary fibrosis” value was 0%, the “Grade: Total score for pulmonary fibrosis/Total specimens” value is recorded as 0/30 and the “Grade of pulmonary fibrosis (total score divided by total number of specimens)” value came out at 0. Moreover, in data set [5], the Grade ratio was 0.00 and the Incidence ratio is reported as 0.00. Further, the “Antibacterial titer of copper-compound” value in data set [3] was determined as 4560 mcg potency/mg.

As for `Cc1c(N)nc(C(CC(N)=O)NCC(N)C(N)=O)nc1C(=O)NC(C(=O)NC(C)C(O)C(C)C(=O)NC(C(=O)NCCc1nc(-c2nc(C(=O)NCCCN(CCCCN(Cc3ccc(Cl)cc3)Cc3ccc(Cl)cc3)Cc3ccc(Cl)cc3)cs2)cs1)C(C)O)C(OC1OC(CO)C(O)C(O)C1OC1OC(CO)C(O)C(OC(N)=O)C1O)c1cnc[nH]1` (stereo not drawn) [Compound 2, 3-{N--p-chlorobenzyl-N--[4'-bis(p-chlorobenzyl)aminobutyl]amino}propylaminobleomycin], in data set [2], the “Antibacterial titer of copper-compound” value came out at 129 mcg potency/mg. In addition, in data set [5], the “Incidence: Number of mice with pulmonary fibrosis/Number of mice in the treatment group” value is 0/10, the “Incidence (%) of pulmonary fibrosis” value is given as 0%, the “Grade: Total score for pulmonary fibrosis/Total specimens” value is reported as 0/30 and the “Grade of pulmonary fibrosis (total score divided by total number of specimens)” value is given as 0. Besides, in data set [5], the Grade ratio amounted to 0.00 and the Incidence ratio is given as 0.00. In data set [3], the “Antibacterial titer of copper-compound” value is given as 613 mcg potency/mg.

Consider `COc1ccc(CN(CCCCN(Cc2ccc(OC)cc2)Cc2ccc(OC)cc2)CCCNC(=O)c2csc(-c3csc(CCNC(=O)C(NC(=O)C(C)C(O)C(C)NC(=O)C(NC(=O)c4nc(C(CC(N)=O)NCC(N)C(N)=O)nc(N)c4C)C(OC4OC(CO)C(O)C(O)C4OC4OC(CO)C(O)C(OC(N)=O)C4O)c4cnc[nH]4)C(C)O)n3)n2)cc1` (stereo not drawn) [Compound 4, 3-{N--p-methoxybenzyl-N--[4'-bis(p-methoxybenzyl)aminobutyl]amino}propylaminobleomycin], for which the “Antibacterial titer of copper-compound” value in data set [2] is 197 mcg potency/mg. In addition, in data set [5], the “Incidence: Number of mice with pulmonary fibrosis/Number of mice in the treatment group” value is recorded as 0/10, the “Incidence (%) of pulmonary fibrosis” value is on record as 0%, the “Grade: Total score for pulmonary fibrosis/Total specimens” value is listed as 0/30 and the “Grade of pulmonary fibrosis (total score divided by total number of specimens)” value is given as 0. In data set [5], the Grade ratio is reported as 0.00 and the Incidence ratio came to 0.00. In addition, the “Antibacterial titer of copper-compound” value in data set [3] is reported as 11109 mcg potency/mg.

In the case of `Cc1c(N)nc(C(CC(N)=O)NCC(N)C(N)=O)nc1C(=O)NC(C(=O)NC(C)C(O)C(C)C(=O)NC(C(=O)NCCc1nc(-c2nc(C(=O)NCCC[S+](C)C)cs2)cs1)C(C)O)C(OC1OC(CO)C(O)C(O)C1OC1OC(CO)C(O)C(OC(N)=O)C1O)c1cnc[nH]1` (stereo not drawn) [bleomycin A2], the “Titer of the standard substance bleomycin A2” value in data set [6] was 1,000 mcg potency/mg.
